Laboratory results reported in ChEMBL document CHEMBL3885881, “DrugMatrix”.

Organism: Rattus norvegicus
Experiment: DrugMatrix - Regimen: Daily Repeat
Type: toxicity, organism-based, Sprague-Dawley
Set-up: regimen Daily Repeat, gender Male, age 6-8 weeks
Details: in vivo, po, 0 mg/kg, route oral GAVAGE, dose level Control, vehicle .5 % CMC; for ABSOLUTE BASOPHIL / ABSOLUTE EOSINOPHIL / ABSOLUTE LYMPHOCYTE / ABSOLUTE MONOCYTE / BASOPHIL / EOSINOPHIL / ERYTHROCYTE COUNT / HEMATOCRIT / HEMOGLOBIN / LEUKOCYTE COUNT / LYMPHOCYTE / MEAN CORPUSCULAR HEMOGLOBIN / MEAN CORPUSCULAR HEMOGLOBIN CONCENTRATION / MEAN CORPUSCULAR VOLUME / MONOCYTE / NEUTROPHIL / PLATELET COUNT: tissue Blood; for ALANINE AMINOTRANSFERASE / ALBUMIN / ALKALINE PHOSPHATASE / ASPARTATE AMINOTRANSFERASE / BLOOD UREA NITROGEN / CARBON DIOXIDE / CHLORIDE / CHOLESTEROL / CREATINE PHOSPHOKINASE / CREATININE / GLUCOSE / LACTATE DEHYDROGENASE / LIPASE / PHOSPHORUS / POTASSIUM / SODIUM / TOTAL BILIRUBIN / TOTAL PROTEIN / URIC ACID: tissue Plasma

## CN(C)CCN(Cc1cccs1)c1ccccn1
120 h, time 5 day
  ABSOLUTE BASOPHIL: 150 cells/µL
  ABSOLUTE EOSINOPHIL: 110 cells/µL
  ABSOLUTE LYMPHOCYTE: 13400 cells/µL
  ABSOLUTE MONOCYTE: 330 cells/µL
  BASOPHIL: 0.78%
  EOSINOPHIL: 0.62%
  ERYTHROCYTE COUNT: 7.12 x10E6/uL
  HEMATOCRIT: 46.95%
  HEMOGLOBIN: 14.55 G/DL
  LEUKOCYTE COUNT: 16.58 x10E3/uL
  LYMPHOCYTE: 80.95%
  MEAN CORPUSCULAR HEMOGLOBIN: 20.45 pg
  MEAN CORPUSCULAR HEMOGLOBIN CONCENTRATION: 31.02 G/DL
  MEAN CORPUSCULAR VOLUME: 65.97 fL
  MONOCYTE: 1.97%
  NEUTROPHIL: 14.12%
  PLATELET COUNT: 1229.25 x10E3/uL
  ALANINE AMINOTRANSFERASE: 45 u/L
  ALBUMIN: 3.8 G/DL
  ALKALINE PHOSPHATASE: 388 u/L
  ASPARTATE AMINOTRANSFERASE: 72.25 u/L
  BLOOD UREA NITROGEN: 15.75 mg/dL
  CARBON DIOXIDE: 37 mmol/L
  CHLORIDE: 107 MEQ/L
  CHOLESTEROL: 73 mg/dL
  CREATINE PHOSPHOKINASE: 525.5 u/L
  CREATININE: 0.5 mg/dL
  GLUCOSE: 179.5 mg/dL
  LACTATE DEHYDROGENASE: 216.25 u/L
  LIPASE: 22.5 u/L
  PHOSPHORUS: 11.97 mg/dL
  POTASSIUM: 6.4 MEQ/L
  SODIUM: 151.25 MEQ/L
  TOTAL BILIRUBIN: 0.3 mg/dL
  TOTAL PROTEIN: 6.55 G/DL
  URIC ACID: 1.35 mg/dL
[…], time 14 day
  ABSOLUTE BASOPHIL: 120 cells/µL
  ABSOLUTE EOSINOPHIL: 40 cells/µL
  ABSOLUTE LYMPHOCYTE: 10100 cells/µL
  ABSOLUTE MONOCYTE: 190 cells/µL
  BASOPHIL: 1.1%
  EOSINOPHIL: 0.33%
  ERYTHROCYTE COUNT: 7.86 x10E6/uL
  HEMATOCRIT: 48.5%
  HEMOGLOBIN: 15.4 G/DL
  LEUKOCYTE COUNT: 11.73 x10E3/uL
  LYMPHOCYTE: 85.92%
  MEAN CORPUSCULAR HEMOGLOBIN: 19.55 pg
  MEAN CORPUSCULAR HEMOGLOBIN CONCENTRATION: 31.72 G/DL
  MEAN CORPUSCULAR VOLUME: 61.67 fL
  MONOCYTE: 1.6%
  NEUTROPHIL: 10.2%
  PLATELET COUNT: 1212.75 x10E3/uL
  ALANINE AMINOTRANSFERASE: 47 u/L
  ALBUMIN: 3.85 G/DL
  ALKALINE PHOSPHATASE: 356.5 u/L
  ASPARTATE AMINOTRANSFERASE: 87.75 u/L
  BLOOD UREA NITROGEN: 14.25 mg/dL
  CARBON DIOXIDE: 36.5 mmol/L
  CHLORIDE: 106.5 MEQ/L
  CHOLESTEROL: 63.25 mg/dL
  CREATINE PHOSPHOKINASE: 324.5 u/L
  CREATININE: 0.65 mg/dL
  GLUCOSE: 162.75 mg/dL
  LACTATE DEHYDROGENASE: 299 u/L
  LIPASE: 16.75 u/L
  PHOSPHORUS: 10.45 mg/dL
  POTASSIUM: 6.6 MEQ/L
  SODIUM: 152 MEQ/L
  TOTAL BILIRUBIN: 0.25 mg/dL
  TOTAL PROTEIN: 6.7 G/DL
  URIC ACID: 1.15 mg/dL
